This note sets out measurements from US9696306B2, “Methods of reducing levels of tau” (The Trustees of Columbia University in the City of New York, priority 2011, dated 2017).

Counter-ions that a name gives are not always drawn.

The first assay concerns Aβ40. In words: Screen of NIH clinical collection compounds for reduction of Aβ40 in Tg2576 mES cell derived neurons (Aβ40 ELISA). Format: cell-based, mouse. Set-up: Percent Inhibition: concentration or dose not given beside the values. As to conditions: Aβ40 in conditioned media vs DMSO control; neurons treated on day 8 after plating for 24 hours. The protocol: In certain embodiments, the inhibitor of the present invention is identified by an assay directed to detecting inhibitors of Aβ40 production. For example, but not by way of limitation, such assays can include assays such as those prepared as follows. First, mouse ES cells isolated from Tg2576 mice are subjected to directed differentiation as previously described. After dissociation of embryoid bodies, neurons are plated in poly-D-lysine and laminin coated 96 well black plates at a density of 1.5×10^5 cells/cm2 which is 45,000 cells/well. Media is changed to N2 containing media after 4 hours and again the next day after plating. Two days after plating, media is changed to B27 containing media which is replaced every 2 days after that. On day 8 after plating the mouse ES derived neurons are treated with the compound of interest. […] In certain embodiments the compounds are incubated with the cells for 24 hours in 150 μl B27 media. In certain embodiments each plate of ES derived neurons is treated with NCC compounds, DMSO (negative control), and the positive controls for Aβ reduction BACE inhibitor IV (Calbiochem) and Compound E. After 24 hours, 100 μl conditioned media can then be removed and frozen at −80° C. until further analysis for Aβ40 content. The remaining cells in 50 μl media can be subjected to cell viability assay CellQuanti Blue (BioAssay Systems). In certain embodiments, conditioned media can be subjected to Aβ40 quantification, e.g., by using Aβ40 ELISA (Invitrogen).
Mouse ES cells isolated from. Tg2576 mice were subjected to directed differentiation as previously described. After dissociation of embryoid bodies, neurons were plated in poly-D-lysine and laminin coated 96 well black plates at a density of 1.5×10^5 cells/cm2 which is 45,000 cells/well. Media was changed to N2 containing media after 4 hours and again the next day after plating. Two days after plating, media was changed to B27 containing media which was replaced every 2 days after that. […] Each plate of ES derived neurons was treated with NCC compounds, DMSO (negative control), and the positive controls for Aβ reduction BACE inhibitor IV (Calbiochem) and Compound E. After 24 hours, 100 μl conditioned media was removed and frozen at −80° C. until further analysis for Aβ40 content. The remaining cells in 50 μl media were subjected to cell viability assay CellQuanti Blue (BioAssay Systems). Conditioned media was subjected to Aβ40 quantification using Aβ40 ELISA (Invitrogen). Compounds which lowered Aβ40 levels in the conditioned media were identified as hits if they reduced Aβ40 by 4 standard deviations of the negative control (DMSO) but maintained cell viability. Cell viability was defined by CellQuanti Blue fluorescent signal maintained within two standard deviations of fluorescent signal from the control treated (DMSO) cells. High potency hits were defined by reducing Aβ40 40% or more (signal 60% of DMSO control).
Hits were defined as lowering Aβ by 4 standard deviations below the negative control (DMSO) treated condition but maintaining cell viability within 2 standard deviations of control.
In general terms: An ELISA detects its analyte on a solid surface through an enzyme-linked reagent.
With `CN(C)CCc1c[nH]c2ccc(Cn3cncn3)cc12` [rizatriptan benzoate], the “Percent Inhibition” value worked out at 10%.

For the compound `CNS(=O)(=O)Cc1ccc2[nH]cc(CCN(C)C)c2c1` [sumatriptan succinate], the “Percent Inhibition” value amounted to 8%.

`CC(=O)OCC(=O)NCCCOc1cccc(CN2CCCCC2)c1` [roxatidine acetate]: the “Percent Inhibition” value was found to be 12%.

On to salbutamol sulfate, for which the “Percent Inhibition” value is 70%.

Regarding `OC[C@H]1O[C@@H](Oc2cc(O)cc(/C=C/c3ccc(O)cc3)c2)[C@H](O)[C@@H](O)[C@@H]1O` [piceid], the “Percent Inhibition” value is recorded as 11%.

Take `CN1C(=O)CN=C(c2ccccc2)c2cc([N+](=O)[O-])ccc21` [nimetanzepam]: the “Percent Inhibition” value is 13%.

For `CN1C(=O)CN=C(c2ccccc2)c2cc(Cl)ccc21` [diazepam], the “Percent Inhibition” value worked out at 11%.

Take medroxyprogesterone: the “Percent Inhibition” value was found to be 20%.

In the case of `COc1cc(-c2ccc(=O)[nH]n2)ccc1OC(F)F` [pyridazinone, 6-[4-difluoromethoxy)-3-methoxyphenyl]], the “Percent Inhibition” value was found to be 50%.

As for `O=C(O)C(Cl)Cl` [dichloroacetic acid], the “Percent Inhibition” value is listed as 11.5%.

`C[N+]1(C)CCN(c2ccccc2)CC1.[I-]` [1,1,-dimethyl-4-phenylpiperazinium iodide]: the “Percent Inhibition” value is listed as 9%.

As to `O=C1N(c2ccccc2)c2ccccc2C1(Cc1ccncc1)Cc1ccncc1` [2h-indol-2-one,1,3-dihydro-1-phenyl-3,3-bis(4-pyridinylmethyl)], the “Percent Inhibition” value was determined as 22%.

Turning to `CC(=O)O[C@]1(C(C)=O)CC[C@H]2[C@@H]3C=C(C)C4=CC(=O)CC[C@]4(C)[C@H]3CC[C@@]21C` [megestrol acetate], the “Percent Inhibition” value is 20%.

In the case of `NNCCc1ccccc1` [phenelzine sulfate], the “Percent Inhibition” value is 70%.

Consider `c1cncc([C@@H]2CCCN2)c1` [nornicotine], for which the “Percent Inhibition” value was determined as 50%.

Turning to `O=C(NCCN1CCOCC1)c1ccc(Cl)cc1` [4-chloro-n-(2-morpholin-4-yl-ethyl)-benzamide], the “Percent Inhibition” value was 21%.

As for `CN1C2CC(OC(=O)C(CO)c3ccccc3)CC1C1OC12` (stereo not drawn) [benzeneacetic acid, alpha-(hydroxymethyl)-, 9-methyl-3-oxa-9-azatricyclo[3,3,1,2,4]non-7-yl ester], the “Percent Inhibition” value is given as 67%.

For the compound `Cl.Nc1c2c(nc3c1CCC3)CCCC2` [amiridine, cyclopenta[b]quinolin-9-amine, 2,3,5,6,7,8-hexahydro-,monohydrochloride], the “Percent Inhibition” value came to 40%.

`CC(Oc1c(Cl)cccc1Cl)C1=NCCN1` (stereo not drawn) [lofexidine]: the “Percent Inhibition” value is 17%.

For the compound `Cc1nc2ccccn2c(=O)c1CCN1CCC(C(=O)c2ccc(F)cc2)CC1` [pirenperone], the “Percent Inhibition” value came to 11%.

As to `Nc1nc(O)c2ncn(CCC(CO)CO)c2n1` [peniciclovir], the “Percent Inhibition” value is 11%.

`COc1cc(CNC(=O)CCCC/C=C/C(C)C)ccc1O` [capsaicin]: the “Percent Inhibition” value came to 62%.

`COc1cc(OC)c(C(=O)CCCN2CCCC2)c(OC)c1` [buflomedil]: the “Percent Inhibition” value amounted to 13%.

Consider `CS(=O)(=O)c1ccc(C2=C(c3ccccc3)C(=O)OC2)cc1` [rofecoxib], for which the “Percent Inhibition” value is 12%.

`CC(C(=O)O)c1ccc(CC2CCCC2=O)cc1` (stereo not drawn) [loxoprofen]: the “Percent Inhibition” value turned out to be 9%.

In the case of `C[C@@H]1C[C@H]2[C@@H]3C[C@H](F)C4=CC(=O)C(Cl)=C[C@]4(C)[C@@]3(F)[C@@H](O)C[C@]2(C)[C@@]1(O)C(=O)CO` [halometasone], the “Percent Inhibition” value is 14%.

Regarding `Cc1ncc([N+](=O)[O-])n1CC(C)O` (stereo not drawn) [1-(2-methyl-5-nitro-imidazol-1-yl)-propan-2-ol], the “Percent Inhibition” value turned out to be 12%.

Regarding `O[C@@H]1CCCC[C@H]1N1CCC(c2ccccc2)CC1` [vesamicol hcl], the “Percent Inhibition” value is on record as 52%.

With `CN1C(C(=O)Nc2ccccn2)=C(O)c2ccccc2S1(=O)=O` [piroxicam], the “Percent Inhibition” value amounted to 9.5%.

With `CO[C@@H]1[C@@H](O[C@@H]2O[C@H](C)[C@@H](O[C@H]3C[C@@](C)(O)[C@@H](OC(=O)CC(C)C)[C@H](C)O3)[C@H](N(C)C)[C@H]2O)[C@@H](CC=O)C[C@@H](C)[C@@H](O)/C=C/C=C/C[C@@H](C)OC(=O)C[C@H]1O` [kitasamycin], the “Percent Inhibition” value is 16%.

For `Cc1ncc([N+](=O)[O-])n1CC(O)CCl` (stereo not drawn) [orinidazole], the “Percent Inhibition” value was 9%.

For the compound `COc1ccc(-c2oc3c(CC=C(C)C)c(O[C@@H]4O[C@H](CO)[C@@H](O)[C@H](O)[C@H]4O)cc(O)c3c(=O)c2O[C@@H]2O[C@@H](C)[C@H](O)[C@@H](O)[C@H]2O)cc1` [icariin], the “Percent Inhibition” value turned out to be 53%.

On to `Oc1ccc2c3c1O[C@H]1c4[nH]c5ccccc5c4C[C@@]4(O)[C@@H](C2)N(CC2CC2)CC[C@]314` [naltrindole], for which the “Percent Inhibition” value came to 66%.

Take `O=[N+]([O-])c1cccc2cn[nH]c12` [7-nitroindazole]: the “Percent Inhibition” value was found to be 17%.

Regarding `CC[C@H]1OC(=O)[C@H](C)[C@@H](O[C@H]2C[C@@](C)(OC)[C@@H](O)[C@H](C)O2)[C@H](C)[C@@H](O[C@@H]2O[C@H](C)C[C@H](N(C)C)[C@H]2O)[C@](C)(OC)C[C@@H](C)C(=O)[C@H](C)[C@@H](O)[C@]1(C)O` [clarithromycin], the “Percent Inhibition” value stood at 22%.

In the case of `C[C@@H](N=C(NC#N)Nc1ccncc1)C(C)(C)C` [pinacicil], the “Percent Inhibition” value is 17%.

Turning to gabexate mesylate, the “Percent Inhibition” value was 20%.

In the case of `C=CC1=C(C(=O)O)N2C(=O)[C@@H](NC(=O)/C(=N\OCC(=O)O)c3csc(N)n3)[C@H]2SC1` [cefixime], the “Percent Inhibition” value was found to be 19%.

The assay is the same for the next values; noted with them: Aβ40 lowering; high priority hits confirmed from independent compound sources; read-out: IC50.
Consider `Cl.Nc1c2c(nc3c1CCC3)CCCC2` [amiridine, cyclopenta[b]quinolin-9-amine, 2,3,5,6,7,8-hexahydro-,monohydrochloride], for which the IC50 was 2300 nM.

The assay is the same for the next values; noted with them: Mus musculus, Neuron.
The compound `COc1ccc(-c2oc3c(CC=C(C)C)c(O[C@@H]4O[C@H](CO)[C@@H](O)[C@H](O)[C@H]4O)cc(O)c3c(=O)c2O[C@@H]2O[C@@H](C)[C@H](O)[C@@H](O)[C@H]2O)cc1` [icariin] displayed an IC50 of 5100 nM.

The assay is the same for the next values; noted with them: Mus musculus, Neuron; Aβ40 lowering; high priority hits confirmed from independent compound sources; read-out: IC50.
Consider `NNCCc1ccccc1` [phenelzine sulfate], for which the IC50 is 2500 nM.

In another assay the test system is tau. In words: Assay for tau: Western blot of tau isoforms in wild type mES cell-derived pyramidal neurons. As to conditions: 20 uM; treated at 14 DIV for 48 hr; Western blot (CP13, PHF). Set-up: key: *: asterisk denotes hit compounds. The assay is classed as cell-based, mouse. The protocol:
In certain embodiments, the inhibitor of the present invention is identified by an assay directed to detecting inhibitors of tau phosporylation. For example, but not by way of limitation, such assays can include assays such as those prepared as follows. First, wild type, mouse embryoinc stem cells are differentiated into pyramidal neurons using the protocol described in Example 1. ES cell-derived neurons are treated at 14 DIV for 48 hr with either vehicle (D, DMSO) or various histone demethylase inhibitors (inhibitor compounds 1-10). Tau isoforms are detected by Western blot analysis of the cell lysates using the indicated antibodies, See FIG. 11. CP13 recognizes tau phosphorylation at ser202/205. PHF recognizes tau phosphorylation at ser396/404. TUJ1 (Neuron-specific class III beta-tubulin) is used as a loading control.
Wild type, mouse embryoinc stem cells were differentiated into pyramidal neurons using the protocol described in Example 1. ES cell-derived neurons were treated at 14 DIV for 48 hr with either vehicle (D, DMSO) or various histone demethylase inhibitors (inhibitor compounds 1-10). Tau isoforms were detected by Western blot analysis of the cell lysates using the indicated antibodies, See FIG. 11. CP13 recognizes tau phosphorylation at ser202/205. PHF recognizes tau phosphorylation at ser396/404. TUJ1 (Neuron-specific class III beta-tubulin) is used as a loading control.
List of inhibitor compounds tested for their ability to inhibit levels of total tau, disease-associated phosphorylated or presence of modified forms of tau include (asterisk denotes hit compounds): *1. pargyline (LSD1 inhibitor)—1000 uM; *2. deprenyl (LSD1 inhibitor)—1000 uM; *3. propargyl (LSD1 inhibitor)—100 uM; 4. phenelzine (LSD1 inhibitor)—100 uM; 5. tranylcyprmine (LSD1 inhibitor)—200 uM; *6. S2101 (LSD1 Inhibitor II, EMD Biosciences catalog #489477)—LSD1 inhibitor—1 uM; 7. N-oxyalylglycine (NOG) (JMJD2s inhibitor)—1000 uM; *8. pyradine (JMJ2A and E inhibitor)—1000 uM; *9. disulfiram (JMJ2A inhibitor)—20 uM; *10. ebselen (JMJ2A inhibitor)—20 uM.
With `O=c1c2ccccc2[se]n1-c1ccccc1` [ebselen], the “ability to inhibit levels of total tau, disease-associated phosphorylated or presence of modified forms of tau” value (shortened to “ability to inhibit levels of total tau”) was “*”.

Take `CCN(CC)C(=S)SSC(=S)N(CC)CC` [disulfiram]: the “ability to inhibit levels of total tau” value is “*”.

Staying with this assay, now noted: 1000 uM; treated at 14 DIV for 48 hr; Western blot (CP13, PHF).
Regarding `C#CCN(C)[C@H](C)Cc1ccccc1` [deprenyl], the “ability to inhibit levels of total tau” value was “*”.

`C#CCN(C)Cc1ccccc1` [pargyline]: the “ability to inhibit levels of total tau” value is “*”.

As usually defined, the IC50 is the midpoint of a concentration-inhibition curve.
